pKi: −log10 of the molar value.
Legend:
[1] = molecular target: BCL2 WT (Homo sapiens (Human), UniProt P10415); assay: TR-FRET competitive binding assay, BCL2 WT; conditions: Ki determined from IC50, read-out: TR_FRET EKI_Bcl2 WT
Procedure, shortened: (§1)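 Ki derived from IC50 (11-point dilution, 520/495 nm emission ratio) for displacing a fluorescein-labelled PUMA peptide (2 or 20 nM). Target was 0.5 nM E. coli-expressed Halo-tagged BCL2 (1-207) or BCLXL (2-196), terbium-labelled on Halo. Incubation 2 h at 23°C in pH 7.5 Hepes with 150 mM NaCl and 5% DMSO.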

[2] = molecular target: BCL2 G101V (Homo sapiens, UniProt P10415, G101V); assay: TR-FRET competitive binding assay, BCL2 G101V; conditions: BCL2 G101V; Ki determined from IC50; read-out: TR_FRET EKI_Bcl2 G101V
Procedure, shortened: as §1

[3] = test system: BCL2 G101V; assay: TR-FRET competitive binding assay, BCL2 G101V; design: species or system human; conditions: ratio Ki BCL2 G101V / Ki BCL2 WT
Procedure, shortened: as §1

[4] = molecular target: BCL2 D103Y (Homo sapiens, UniProt P10415, D103Y); assay: TR-FRET competitive binding assay, BCL2 D103Y; conditions: Ki determined from IC50, read-out: TR_FRET EKI_Bcl2 D103Y
Procedure, shortened: as §1

[5] = molecular target: BCL2 F104I (Homo sapiens, UniProt P10415, F104I); assay: TR-FRET competitive binding assay, BCL2 F104I; conditions: Ki determined from IC50, read-out: TR_FRET EKI_Bcl2 F104I
Procedure, shortened: as §1

[6] = molecular target: BCL2 D111A (Homo sapiens, UniProt P10415, D111A); assay: TR-FRET competitive binding assay, BCL2 D111A; conditions: Ki determined from IC50, read-out: TR_FRET EKI_Bcl2 D111A
Procedure, shortened: as §1

[7] = molecular target: BCLXL WT (Homo sapiens (Human), UniProt Q07817); assay: TR-FRET competitive binding assay, BCLXL WT; conditions: for pKi: BCLXL WT, Ki determined from IC50, read-out: TR_FRET EKI BclxL; for TR_FRET EKI BCLxL/WT selectivty ratio: ratio Ki BCLxL / Ki BCL2 WT
BCLXL WT, sequence (Q07817 other isoform, or with tags, fused parts or gaps): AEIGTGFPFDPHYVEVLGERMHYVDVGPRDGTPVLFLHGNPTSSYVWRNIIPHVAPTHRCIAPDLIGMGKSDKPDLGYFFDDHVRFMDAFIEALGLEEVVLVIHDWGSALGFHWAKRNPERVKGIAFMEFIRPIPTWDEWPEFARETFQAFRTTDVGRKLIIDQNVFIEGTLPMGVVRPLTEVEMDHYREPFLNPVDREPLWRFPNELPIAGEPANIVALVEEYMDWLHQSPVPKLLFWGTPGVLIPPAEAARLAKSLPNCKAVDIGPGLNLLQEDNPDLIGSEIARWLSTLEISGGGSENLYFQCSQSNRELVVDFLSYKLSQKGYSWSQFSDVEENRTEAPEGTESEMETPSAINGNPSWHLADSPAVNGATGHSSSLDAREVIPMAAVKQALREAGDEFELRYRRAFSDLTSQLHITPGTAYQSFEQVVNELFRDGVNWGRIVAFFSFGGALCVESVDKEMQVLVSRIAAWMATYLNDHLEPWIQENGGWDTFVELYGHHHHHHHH
Procedure, shortened: as §1

[8] = test system: KMS-12-PE Bcl-2 WT; assay: In vitro cytotoxicity CellTiter-Glo 48 h, KMS-12-PE Bcl-2 WT; type: cell-based; conditions: Homo sapiens, KMS-12-PE, C50 = concentration needed to reach 50% of the cellular viability
Procedure, shortened: (§2)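 KMS-12-PE myeloma cells were lentivirally transduced with wild-type or G101V-mutant Bcl-2 and sorted by TagRFP. They were exposed to compounds as 11-point dose responses for 48 h at 37 °C, 5% CO2. Viability was read by CellTiter-Glo ATP luminescence, and C50 was the concentration giving 50% viability.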

[9] = test system: KMS-12-PE Bcl-2 G101V; assay: In vitro cytotoxicity CellTiter-Glo 48 h, KMS-12-PE Bcl-2 G101V; type: cell-based; conditions: for Ratio (G101V/WT): C50 KMS-12-PE Bcl-2 G101V over C50 KMS-12-PE Bcl-2 WT; for IC50: Homo sapiens, KMS-12-PE, 48 h, CellTiter-Glo, C50 = concentration needed to reach 50% of the cellular viability
Procedure, shortened: as §2

With `Cc1c(N(C(=O)c2cc(-c3cc4c(cc3C(=O)N3Cc5ccccc5C[C@H]3CN3CCC(F)CC3)CN(C(=O)Cc3ccc(OCCN5CCOCC5)cc3F)CC4)n(C)c2C)c2ccc(O)cc2)cc(C#N)n1C` [Example 86, N-(5-cyano-1,2-dimethyl-1H-pyrrol-3-yl)-5-[2-(2-{2-fluoro-4-[2-(morpholin-4-yl)ethoxy]phenyl}acetyl)-7-[(3S)-3-[(4-fluoropiperidin-1-yl)methyl]-1,2,3,4-tetrahydroisoquinoline-2-carbonyl]-1,2,3,4-tetrahydroisoquinolin-6-yl]-N-(4-hydroxyphenyl)-1,2-dimethyl-1H-pyrrole-3-carboxamide] the pKi [1] was 9.89, the pKi [2] was 9.30 and the “TR_FRET EKI G101V/WT selectivty ratio” value [3] was 3.9. The pKi [4] was 9.38, the pKi [5] was 9.43 and the pKi [6] was 9.64. For the same compound, the pKi [7] was 8.80, the “TR_FRET EKI BCLxL/WT selectivty ratio” value [7] was 12.3 and the IC50 [8] was 0.0048 µM. For the same compound, the “Ratio (G101V/WT)” value [9] was 5.21 and the IC50 [9] was 0.0249 µM.
`Cc1c(N(C(=O)c2cc(-c3cc4c(cc3C(=O)N3Cc5ccccc5C[C@H]3CN3CCCCC3)CN(C(=O)Cc3ccc(O[C@H]5CCN(CCF)C5)cc3F)CC4)n(C)c2C)c2ccc(O)cc2)cc(C#N)n1C` [Example 89, N-(5-cyano-1,2-dimethylpyrrol-3-yl)-5-{2-[2-(2-fluoro-4-{[(3S)-1-(2-fluoroethyl)pyrrolidin-3-yl]oxy}phenyl)acetyl]-7-{[(3S)-3-(piperidin-1-ylmethyl)-3,4-dihydro-1H-isoquinolin-2-yl]carbonyl}-3,4-dihydro-1H-isoquinolin-6-yl}-N-(4-hydroxyphenyl)-1,2-dimethylpyrrole-3-carboxamide] was tested, and the pKi [1] was 10.15, the pKi [2] was 9.52 and the “TR_FRET EKI G101V/WT selectivty ratio” value [3] was 4.3. For the same compound, the pKi [4] was 9.74, the pKi [5] was 9.37 and the pKi [6] was 9.59. The pKi [7] was 8.72, the “TR_FRET EKI BCLxL/WT selectivty ratio” value [7] was 29.2 and the IC50 [8] was 0.0069 µM. The “Ratio (G101V/WT)” value [9] was 5.17 and the IC50 [9] was 0.0358 µM.
`Cc1c(N(C(=O)c2cc(-c3cc4c(cc3C(=O)N3Cc5ccccc5C[C@H]3CN3CCCCCC3)CN(C(=O)Cc3ccc(OCCN5CCOCC5)cc3F)CC4)n(C)c2C)c2ccc(O)cc2)cc(C#N)n1C` [Example 96, 5-{7-[(3S)-3-[(azepan-1-yl)methyl]-1,2,3,4-tetrahydroisoquinoline-2-carbonyl]-2-(2-{2-fluoro-4-[2-(morpholin-4-yl)ethoxy]phenyl}acetyl)-1,2,3,4-tetrahydroisoquinolin-6-yl}-N-(5-cyano-1,2-dimethyl-1H-pyrrol-3-yl)-N-(4-hydroxyphenyl)-1,2-dimethyl-1H-pyrrole-3-carboxamide] was tested, and the pKi [1] was 10.22, the pKi [2] was 9.40 and the “TR_FRET EKI G101V/WT selectivty ratio” value [3] was 5.6. The pKi [4] was 9.70, the pKi [5] was 9.70 and the pKi [6] was 9.70. The pKi [7] was 8.62, the “TR_FRET EKI BCLxL/WT selectivty ratio” value [7] was 37.5 and the IC50 [8] was 0.0056 µM. For the same compound, the “Ratio (G101V/WT)” value [9] was 5.15 and the IC50 [9] was 0.0291 µM.
With `Cc1c(N(C(=O)c2cc(-c3cc4c(cc3C(=O)N3Cc5ccccc5C[C@H]3CN3CCCCC3)CN(C(=O)Cc3c(F)cc(OCCN5CCOCC5)cc3F)CC4)n(C)c2C)c2ccc(O)cc2)cc(C#N)n1C` [Example 97, N-(5-cyano-1,2-dimethylpyrrol-3-yl)-5-[2-(2-{2,6-difluoro-4-[2-(morpholin-4-yl)ethoxy]phenyl}acetyl)-7-{[(3S)-3-(piperidin-1-ylmethyl)-3,4-dihydro-1H-isoquinolin-2-yl]carbonyl}-3,4-dihydro-1H-isoquinolin-6-yl]-N-(4-hydroxyphenyl)-1,2-dimethylpyrrole-3-carboxamide] the pKi [1] was 10.30, the pKi [2] was 9.70 and the “TR_FRET EKI G101V/WT selectivty ratio” value [3] was 4.3. It also gave a pKi [4] of 9.74, a pKi [5] of 9.80 and a pKi [6] of 9.85. For the same compound, the pKi [7] was 8.72, the “TR_FRET EKI BCLxL/WT selectivty ratio” value [7] was 41.3 and the IC50 [8] was 0.0033 µM. The “Ratio (G101V/WT)” value [9] was 4.68 and the IC50 [9] was 0.0158 µM.
In the case of `Cc1c(N(C(=O)c2cc(-c3cc4c(cc3C(=O)N3Cc5ccccc5C[C@H]3CN3CCCCC3)CN(C(=O)Cc3ccc(OCCN5C[C@@H](C)O[C@@H](C)C5)cc3)CC4)n(C)c2C)c2ccc(O)cc2)cc(C#N)n1C` [Example 98, N-(5-cyano-1,2-dimethylpyrrol-3-yl)-5-{2-[2-(4-{2-[cis-2,6-dimethylmorpholin-4-yl]ethoxy}phenyl)acetyl]-7-{[(3S)-3-(piperidin-1-ylmethyl)-3,4-dihydro-1H-isoquinolin-2-yl]carbonyl}-3,4-dihydro-1H-isoquinolin-6-yl}-N-(4-hydroxyphenyl)-1,2-dimethylpyrrole-3-carboxamide], the pKi [1] was 10.15, the pKi [2] was 9.40 and the “TR_FRET EKI G101V/WT selectivty ratio” value [3] was 4.9. The pKi [4] was 9.62, the pKi [5] was 9.22 and the pKi [6] was 9.60. The pKi [7] was 8.33, the “TR_FRET EKI BCLxL/WT selectivty ratio” value [7] was 66.2 and the IC50 [8] was 0.0087 µM. The “Ratio (G101V/WT)” value [9] was 4.6 and the IC50 [9] was 0.0401 µM.
`Cc1c(N(C(=O)c2cc(-c3cc4c(cc3C(=O)N3Cc5ccccc5C[C@H]3CN3CCCCC3)CN(C(=O)Cc3ccc(OCCN(C)C5CC5)cc3)CC4)n(C)c2C)c2ccc(O)cc2)cc(C#N)n1C` [Example 102, N-(5-cyano-1,2-dimethyl-1H-pyrrol-3-yl)-5-{2-[2-(4-{2-[cyclopropyl(methyl)amino]ethoxy}phenyl)acetyl]-7-[(3S)-3-[(piperidin-1-yl)methyl]-1,2,3,4-tetrahydroisoquinoline-2-carbonyl]-1,2,3,4-tetrahydroisoquinolin-6-yl}-N-(4-hydroxyphenyl)-1,2-dimethyl-1H-pyrrole-3-carboxamide] was tested, and the pKi [1] was 10.22, the pKi [2] was 9.40 and the “TR_FRET EKI G101V/WT selectivty ratio” value [3] was 6.5. The pKi [4] was 9.68, the pKi [5] was 9.14 and the pKi [6] was 9.62. The pKi [7] was 8.55, the “TR_FRET EKI BCLxL/WT selectivty ratio” value [7] was 49.1 and the IC50 [8] was 0.0075 µM. For the same compound, the “Ratio (G101V/WT)” value [9] was 6.03 and the IC50 [9] was 0.0424 µM.
`Cc1c(N(C(=O)c2cc(-c3cc4c(cc3C(=O)N3Cc5ccccc5C[C@H]3CN3CCCCC3)CN(C(=O)Cc3ccc(OCCN(C)C5COC5)cc3F)CC4)n(C)c2C)c2ccc(O)cc2)cc(C#N)n1C` [Example 105, N-(5-cyano-1,2-dimethyl-1H-pyrrol-3-yl)-5-{2-[2-(2-fluoro-4-{2-[methyl(oxetan-3-yl)amino]ethoxy}phenyl)acetyl]-7-[(3S)-3-[(piperidin-1-yl)methyl]-1,2,3,4-tetrahydroisoquinoline-2-carbonyl]-1,2,3,4-tetrahydroisoquinolin-6-yl}-N-(4-hydroxyphenyl)-1,2-dimethyl-1H-pyrrole-3-carboxamide] was tested, and the pKi [1] was 10.30, the pKi [2] was 9.70 and the “TR_FRET EKI G101V/WT selectivty ratio” value [3] was 4.3. The pKi [4] was 9.96, the pKi [5] was 9.66 and the pKi [6] was 9.92. For the same compound, the pKi [7] was 8.80, the “TR_FRET EKI BCLxL/WT selectivty ratio” value [7] was 32.7 and the IC50 [8] was 0.0054 µM. The “Ratio (G101V/WT)” value [9] was 5.28 and the IC50 [9] was 0.0285 µM.
`COc1ncc(N(C(=O)c2cc(-c3cc4c(cc3C(=O)N3Cc5ccccc5C[C@H]3C)CN(C(=O)Cc3ccc(OCCN5CCOCC5)cc3F)CC4)n(C)c2C)c2ccc(O)cc2)cc1F` [Example 111, 5-[2-(2-{2-fluoro-4-[2-(morpholin-4-yl)ethoxy]phenyl}acetyl)-7-{[(3R)-3-methyl-3,4-dihydro-1H-isoquinolin-2-yl]carbonyl}-3,4-dihydro-1H-isoquinolin-6-yl]-N-(5-fluoro-6-methoxypyridin-3-yl)-N-(4-hydroxyphenyl)-1,2-dimethylpyrrole-3-carboxamide] was tested, and the pKi [1] was 9.82, the pKi [2] was 9.10 and the “TR_FRET EKI G101V/WT selectivty ratio” value [3] was 5.2. For the same compound, the pKi [4] was 9.23, the pKi [5] was 9.10 and the pKi [6] was 9.40. The pKi [7] was 8.14, the “TR_FRET EKI BCLxL/WT selectivty ratio” value [7] was 48.0 and the IC50 [8] was 0.0048 µM. For the same compound, the “Ratio (G101V/WT)” value [9] was 8.18 and the IC50 [9] was 0.0392 µM.

Source: patent publication US20250179047A1, “5-[7-(3,4-DIHYDRO-1H-ISOQUINOLINE-2-CARBONYL)-1,2,3,4 TETRAHYDROISOQUINOLIN-6-YL]-1H-PYRROLE-3-CARBOXAMIDE DERIVATIVES, PHARMACEUTICAL COMPOSITIONS CONTAINING THEM AND THEIR USES AS PRO-APOPTOTIC AGENTS” (LES LABORATOIRES SERVIER, priority 2022, published 2025)
